Results taken from patent US20170042991A1, “COMPOSITIONS COMPRISING GLUTEN PEPTIDES AND USES THEREOF” (ImmusanT, Inc., priority 2014, published 2017).
Non-standard residues stand in square brackets, D forms with d. pGlu = O=C1CC[C@@H](C(=O)O)N1

Experiments:
Assay type in all cases: cell-based, human
whole blood [1] = assay: 96-well plate whole blood multiplex cytokine release, IFNγ (MAGPIX bead assay, Example 2); settings: for Percent of maximal response, IFNg: after oral gluten challenge; for IFNγ WB MAGPIX % max Mean: individual peptides 5 μM, Day-6, n = 8, Peptide 2 = CSBio batch
PBMC [2] = assay: IFN-gamma ELISpot of PBMC, Day-6 after gluten challenge (Example 1); settings: DQ2.5+ CD
whole blood [3] = assay: 96-well plate whole blood multiplex cytokine release, IP-10 (MAGPIX bead assay, Example 2); settings: for Percent of maximal response, IP-10: after oral gluten challenge; for IP-10 WB MAGPIX % max Mean: individual peptides 5 μM, Day-6, n = 10, Peptide 2 = CSBio batch
PBMC [4] = assay: Overnight IFNγ ELISpot assay with fresh PBMC (Example 2); settings: for Percent of maximal response, ELISp: after oral gluten challenge; for IFNγ ELISpot % max Mean: individual peptides 5 μM, Day-6, n = 5, Peptide 2 = CSBio batch
Description: Ten HLA-DQ2.5+ adults with celiac disease diagnosed according to the National Institutes of Health Consensus Statement 2004 were enrolled (Table 7).^22 Subjects were required to have followed gluten-free diet for at least one year and without known gluten exposures within the previous two-months. […] Full inclusion and exclusion criteria are described in Table 8. Each of 3 consecutive days subjects consumed 3 cookies that were prepared from approximately 4.5 g wheat gluten, 3 g barley flour protein, and 1.5 g rye flour protein. Blood was collected before and six days after commencing the oral challenge. Blood was collected using a 21G butterfly needle directly into 10 mL lithium heparin tubes (BD Vacutainer® Heparin tube #367880) and QuantiFERON® NIL (0591-0205, Cellestis Ltd., Chadstone VIC 3148 Australia) and QuantiFERON® MITOGEN (0593-0201, Cellestis Ltd.).
Overnight IFNγ ELISpot assays (Human IFN-γ ELISpotPRO kit, transparent, ALP; Mabtech AB, #3420-2APT-10) were performed using PBMC freshly separated from heparinized blood diluted 1:1 in PBS with 2% fetal bovine serum (Stemcell Technologies #07905; Vancouver, BC, V5Z 1B3, Canada) overlaid on density gradient medium (Ficoll-Paque™ PLUS; GE Healthcare Lice Sciences #:17-1440-02) in SepMate™-50 tubes (Stemcell Technologies #15460). PBMC (8 million/mL) were resuspended in serum-free medium with gentamicin and phenol red (X-VIVO™15; Lonza, Walkersville Mass. 21793). PBMC (0.4 million/50 μL/well) and incubated with 50 μL 80% X-vivol5, 0.2% DMSO and 20% PBS in three triplicate wells (“medium only”), or with 50 μL PHA-L 20 μg/ml or peptide at 2× final concentration in 80% X-vivol5, 0.2% DMSO and 20% PBS. Peptide solutions to be added to individual ELISpot wells were prepared in 96-well U-bottom plates (60 μL/well) that were then sealed with adhesive ELISA plate cover slips before replacing the plastic lid and being frozen at −80° C. 96-well plates containing peptide solutions were thawed at room temperature for 10 min while being centrifuged at 300 g immediately prior to being added to ELISpot wells. Peptide pools and mitogen were assessed in triplicate wells, and individual peptides were assessed in duplicate wells. X-VIVO™15 (50 μL) was incubated with 80% X-vivol5, 0.2% DMSO and 20% PBS (50 μL) in triplicate wells (“no PBMC” control). A Zeiss automated ELISpot counter was used to determine spot forming units (SFU) per well (Zellnet Inc., Fort Lee, N.J. 07024). Laboratory staff were unaware of the arrangement of peptide solutions in ELISpot wells during assay setup and plate counting.

Row | Substance | Percent of maximal response, IFNg (whole blood [1]; Subject 2, Max. 116 pg/mL) | Percent of maximal response, IFNg (whole blood [1]; Subject 3, Max. 799 pg/mL) | Percent of maximal response, IFNg (whole blood [1]; Subject 4, Max. 136 pg/mL) | Percent of maximal response, IFNg (whole blood [1]; Subject 6, Max. 72 pg/mL) | Percent of maximal response, IFNg (whole blood [1]; Subject 7, Max. 17 pg/mL) | Percent of maximal response, IFNg (whole blood [1]; Subject 8, Max. 47 pg/mL) | Percent of maximal response, IFNg (whole blood [1]; Subject 9, Max. 67 pg/mL) | Percent of maximal response, IFNg (whole blood [1]; Subject 10, Max. 229 pg/mL) | IFNγ WB MAGPIX % max Mean (whole blood [1]) [% max] | Peptide-specific IFN-gamma ELISpot response (PBMC [2]; Subject 1, 10 ug/ml) | Peptide-specific IFN-gamma ELISpot response (PBMC [2]; Subject 2, 10 ug/ml) | Peptide-specific IFN-gamma ELISpot response (PBMC [2]; Subject 3, 10 ug/ml) | Peptide-specific IFN-gamma ELISpot response (PBMC [2]; Subject 4, 10 ug/ml) | Peptide-specific IFN-gamma ELISpot response (PBMC [2]; Subject 5, 10 ug/ml) | Peptide-specific IFN-gamma ELISpot response (PBMC [2]; Subject 6, 10 ug/ml) | Peptide-specific IFN-gamma ELISpot response (PBMC [2]; Subject 7, 10 ug/ml) | Peptide-specific IFN-gamma ELISpot response (PBMC [2]; Subject 8, 10 ug/ml) | Peptide-specific IFN-gamma ELISpot response (PBMC [2]; Subject 9, 10 ug/ml) | Peptide-specific IFN-gamma ELISpot response (PBMC [2]; Subject 10, 10 ug/ml) | Percent of maximal response, IP-10 (whole blood [3]; Subject 1, Max. 2331 pg/mL) | other results
1 | (pE)LQPFPQPELPYPQPQ-amide ([pGlu]LQPFPQPELPYPQPQ-NH2; SMILES CC(C)C[C@H](NC(=O)[C@@H]1CCC(=O)N1)C(=O)N[C@@H](CCC(N)=O)C(=O)N1CCC[C@H]1C(=O)N[C@@H](Cc1ccccc1)C(=O)N1CCC[C@H]1C(=O)N[C@@H](CCC(N)=O)C(=O)N1CCC[C@H]1C(=O)N[C@@H](CCC(=O)O)C(=O)N[C@@H](CC(C)C)C(=O)N1CCC[C@H]1C(=O)N[C@@H](Cc1ccc(O)cc1)C(=O)N1CCC[C@H]1C(=O)N[C@@H](CCC(N)=O)C(=O)N1CCC[C@H]1C(=O)N[C@@H](CCC(N)=O)C(N)=O) [Peptide 1] | 100 % of max | 14 % of max | 26 % of max | 25 % of max | 43 % of max | 6 % of max | 43 % of max | 7 % of max | 33 | 2 spot forming units per 0.8 million PBMC | 4 spot forming units per 0.8 million PBMC | 2 spot forming units per 0.8 million PBMC | 8 spot forming units per 0.8 million PBMC | 0 spot forming units per 0.8 million PBMC | 4 spot forming units per 0.8 million PBMC | 1 spot forming units per 0.8 million PBMC | 0 spot forming units per 0.8 million PBMC | 0 spot forming units per 0.8 million PBMC | 1 spot forming units per 0.8 million PBMC | 100 % of max | Percent of maximal response, IP-10 (whole blood [3]; Subject 2, Max. 3646 pg/mL): 100 % of max; Percent of maximal response, IP-10 (whole blood [3]; Subject 3, Max. 9492 pg/mL): ≥ 100 % of max; Percent of maximal response, IP-10 (whole blood [3]; Subject 4, Max. 9463 pg/mL): 96 % of max; Percent of maximal response, IP-10 (whole blood [3]; Subject 5, Max. 9336 pg/mL): 14 % of max; Percent of maximal response, IP-10 (whole blood [3]; Subject 6, Max. 5863 pg/mL): 23 % of max; Percent of maximal response, IP-10 (whole blood [3]; Subject 7, Max. 2330 pg/mL): 39 % of max; Percent of maximal response, IP-10 (whole blood [3]; Subject 8, Max. 4019 pg/mL): 3 % of max; Percent of maximal response, IP-10 (whole blood [3]; Subject 9, Max. 8349 pg/mL): 75 % of max; Percent of maximal response, IP-10 (whole blood [3]; Subject 10, Max. 8922 pg/mL): 34 % of max; IP-10 WB MAGPIX % max Mean (whole blood [3]): 58 % max; Percent of maximal response, ELISp (PBMC [4]; Subject 3, Max. 18 SFU): 11 % of max; Percent of maximal response, ELISp (PBMC [4]; Subject 4, Max. 36 SFU): 22 % of max; Percent of maximal response, ELISp (PBMC [4]; Subject 6, Max. 16 SFU): 25 % of max; Percent of maximal response, ELISp (PBMC [4]; Subject 8, Max. 17 SFU): 0 % of max; Percent of maximal response, ELISp (PBMC [4]; Subject 10, Max. 11 SFU): 9 % of max; IFNγ ELISpot % max Mean (PBMC [4]): 13 % max
2 | (pE)PEQPIPEQPQPYPQQ-amide ([pGlu]PEQPIPEQPQPYPQQ-NH2; SMILES CC[C@H](C)[C@H](NC(=O)[C@@H]1CCCN1C(=O)[C@H](CCC(N)=O)NC(=O)[C@H](CCC(=O)O)NC(=O)[C@@H]1CCCN1C(=O)[C@@H]1CCC(=O)N1)C(=O)N1CCC[C@H]1C(=O)N[C@@H](CCC(=O)O)C(=O)N[C@@H](CCC(N)=O)C(=O)N1CCC[C@H]1C(=O)N[C@@H](CCC(N)=O)C(=O)N1CCC[C@H]1C(=O)N[C@@H](Cc1ccc(O)cc1)C(=O)N1CCC[C@H]1C(=O)N[C@@H](CCC(N)=O)C(=O)N[C@@H](CCC(N)=O)C(N)=O) [Peptide 3] | 35 % of max | 92 % of max | 66 % of max | 63 % of max | 6 % of max | 89 % of max | 60 % of max | 81 % of max | 62 | 0 spot forming units per 0.8 million PBMC | 1 spot forming units per 0.8 million PBMC | 9 spot forming units per 0.8 million PBMC | 30 spot forming units per 0.8 million PBMC | 0 spot forming units per 0.8 million PBMC | 11 spot forming units per 0.8 million PBMC | 1 spot forming units per 0.8 million PBMC | 9 spot forming units per 0.8 million PBMC | 3 spot forming units per 0.8 million PBMC | 1 spot forming units per 0.8 million PBMC | 51 % of max | whole blood IFNγ release compared with that stimulated by Peptide 14 (whole blood [1]; whole blood incubations): one-third less; Percent of maximal response, IP-10 (whole blood [3]; Subject 2, Max. 3646 pg/mL): 14 % of max; Percent of maximal response, IP-10 (whole blood [3]; Subject 3, Max. 9492 pg/mL): ≥ 100 % of max; Percent of maximal response, IP-10 (whole blood [3]; Subject 4, Max. 9463 pg/mL): ≥ 100 % of max; Percent of maximal response, IP-10 (whole blood [3]; Subject 5, Max. 9336 pg/mL): 53 % of max; Percent of maximal response, IP-10 (whole blood [3]; Subject 6, Max. 5863 pg/mL): 43 % of max; Percent of maximal response, IP-10 (whole blood [3]; Subject 7, Max. 2330 pg/mL): 5 % of max; Percent of maximal response, IP-10 (whole blood [3]; Subject 8, Max. 4019 pg/mL): 100 % of max; Percent of maximal response, IP-10 (whole blood [3]; Subject 9, Max. 8349 pg/mL): 85 % of max; Percent of maximal response, IP-10 (whole blood [3]; Subject 10, Max. 8922 pg/mL): ≥ 100 % of max; IP-10 WB MAGPIX % max Mean (whole blood [3]): 65 % max; whole blood IP-10 release compared with that stimulated by Peptide 14 (whole blood [3]; whole blood incubations): one-quarter less; IFNγ ELISpot responses relative to Peptide 14 5 μM (PBMC [4]; Peptide 3 10 μg/mL (5.3 μM)): one-half; Percent of maximal response, ELISp (PBMC [4]; Subject 3, Max. 18 SFU): 50 % of max; Percent of maximal response, ELISp (PBMC [4]; Subject 4, Max. 36 SFU): 83 % of max; Percent of maximal response, ELISp (PBMC [4]; Subject 6, Max. 16 SFU): 69 % of max; Percent of maximal response, ELISp (PBMC [4]; Subject 8, Max. 17 SFU): 53 % of max; Percent of maximal response, ELISp (PBMC [4]; Subject 10, Max. 11 SFU): 9 % of max; IFNγ ELISpot % max Mean (PBMC [4]): 53 % max
